According to PMC11024869, “The activity of antimicrobial peptoids against multidrug-resistant ocular pathogens” (Contact lens & anterior eye : the journal of the British …, 2024):
Values after ≈ are worked out from the molar mass of the structure shown. Non-standard residues stand in square brackets, D forms with d. Residues, ends and D or L forms follow the SMILES beside them. Nspe = C[C@H](NCC(=O)O)c1ccccc1; Nlys = NCCCCNCC(=O)O

What was measured:
Assay type in all cases: cell-based
[1] = system: Pseudomonas aeruginosa PAO1; conditions: PAO1, MHB
From the text: (§3) The S. pneumoniae strains used were SP04, SP06 and SP07 [46] and Streptococcus gallolyticus SV06 (all isolated from eyes of contact lens wearers during adverse events); P. aeruginosa PAO1 (which was originally isolated from a wound, and is an invasive strain containing the gene exoS) as well as isolates from microbial keratitis, PA 235 (invasive strain containing exoS), PA216 (a cytotoxic strain containing exoU), PA219 (cytotoxic strain containing exoU), PA 233 (cytotoxic strain containing exoU), with various susceptibilities to antibiotics were also used [14]. C. albicans ATCC 10231, a yeast, isolated from case of a human bronchomycosis, was also evaluated.
(§4) The peptoids’ minimum inhibitory and bactericidal concentrations (MIC and MBC) were determined using micro broth dilution methods as previously described with slight modifications, [26, 39, 49, 50], and without using acetic acid and bovine serum albumin [39]. Briefly, bacteria or yeast were suspended in Muller Hinton broth (MHB, Oxoid, Thermo Fisher Scientific, Thebarton, SA, Australia) at 0.1 OD660nm, which was equivalent to 1x10^8 colony forming units (CFU) mL^−1. This suspension was further diluted to achieve 5x10^6 CFU mL^−1. The peptoids were diluted in MHB from 250 to 0.24 μg mL^−1 in 96-well polystyrene microplates (COSTAR, Corning Incorporated, New York, NY, USA) [39]. […] This was followed by addition of 100 μL of each microbial suspensions. Wells with only bacteria or the yeast were treated as a negative control, and wells with only MHB medium were treated as a blank. The plates were incubated at 37 °C with shaking at 120 rpm for 24 h. After incubation, the media in each well was serially diluted in phosphate buffered solution and then inoculated onto tryptone soya agar (Oxoid) plates for bacteria, or Sabouraud’s dextrose agar for the yeast, and incubated at 37 °C for 18 hrs. Post incubation, the number of CFUs on the agar plates was counted.

[2] = system: Pseudomonas aeruginosa PA216; conditions: PA216, MHB, 24 h 37 °C
From the text: as §3, §4

[3] = system: Pseudomonas aeruginosa PA219; conditions: PA219, MHB, 24 h 37 °C
From the text: as §3, §4

[4] = system: Pseudomonas aeruginosa PA233; conditions: PA233, MHB, 24 h 37 °C
From the text: All S. aureus strains used were isolated from cases of microbial keratitis (Table 1) with various susceptibilities to antibiotics. The S. pneumoniae strains used were SP04, SP06 and SP07 [46] and Streptococcus gallolyticus SV06 (all isolated from eyes of contact lens wearers during adverse events); P. aeruginosa PAO1 (which was originally isolated from a wound, and is an invasive strain containing the gene exoS) as well as isolates from microbial keratitis, PA 235 (invasive strain containing exoS), PA216 (a cytotoxic strain containing exoU), PA219 (cytotoxic strain containing exoU), PA 233 (cytotoxic strain containing exoU), with various susceptibilities to antibiotics were also used. C. albicans ATCC 10231, a yeast, isolated from case of a human bronchomycosis, was also evaluated.
The peptoids’ minimum inhibitory and bactericidal concentrations (MIC and MBC) were determined using micro broth dilution methods as previously described with slight modifications, [26, 39, 49, 50], and without using acetic acid and bovine serum albumin [39]. Briefly, bacteria or yeast were suspended in Muller Hinton broth (MHB, Oxoid, Thermo Fisher Scientific, Thebarton, SA, Australia) at 0.1 OD660nm, which was equivalent to 1x10^8 colony forming units (CFU) mL^−1. This suspension was further diluted to achieve 5x10^6 CFU mL^−1. The peptoids were diluted in MHB from 250 to 0.24 μg mL^−1 in 96-well polystyrene microplates (COSTAR, Corning Incorporated, New York, NY, USA). This range was selected to cover the range of MIC values previously reported for ESKAPE pathogens. This was followed by addition of 100 μL of each microbial suspensions. Wells with only bacteria or the yeast were treated as a negative control, and wells with only MHB medium were treated as a blank. The plates were incubated at 37 °C with shaking at 120 rpm for 24 h. After incubation, the media in each well was serially diluted in phosphate buffered solution and then inoculated onto tryptone soya agar (Oxoid) plates for bacteria, or Sabouraud’s dextrose agar for the yeast, and incubated at 37 °C for 18 hrs. Post incubation, the number of CFUs on the agar plates was counted.

[5] = system: Pseudomonas aeruginosa PA235; conditions: PA235; MHB, 24 h 37 °C; ≥99.99 % reduction in CFUs
From the text: as §3, §4

[6] = system: Staphylococcus aureus SA34; conditions: SA34, MHB, 24 h 37 °C
From the text: as §3, §4

[7] = system: Staphylococcus aureus SA65; conditions: SA65, MHB, 24 h 37 °C
From the text: as §3, §4

[8] = system: Staphylococcus aureus SA113; conditions: SA113, MHB, 24 h 37 °C
From the text: as §3, §4

[9] = system: Staphylococcus aureus SA114; conditions: SA114, MHB, 24 h 37 °C
From the text: as §3, §4

[10] = system: Staphylococcus aureus SA117; conditions: SA117, MHB, 24 h 37 °C
From the text: as §3, §4

[11] = system: Streptococcus pneumoniae SP04; conditions: SP04, MHB, 24 h 37 °C
From the text: as §3, §4

[12] = system: Streptococcus pneumoniae SP06; conditions: SP06, MHB, 24 h 37 °C
From the text: as §3, §4

[13] = system: Streptococcus pneumoniae SP07; conditions: SP07, MHB, 24 h 37 °C
From the text: as §3, §4

[14] = system: Streptococcus gallolyticus SG04; conditions: SG04, MHB, 24 h 37 °C
From the text: as §3, §4

[15] = system: viridans group streptococcus SV06; conditions: SV06, MHB, 24 h 37 °C
From the text: as §3, §4

[16] = system: Candida albicans ATCC 10231; assay: MIC/MBC (fungicidal) micro broth dilution; conditions: ATCC 10231 (yeast); MHB, 24 h 37 °C; ≥99.99 % reduction in CFUs
From the text: as §3, §4

horse erythrocytes = assay: In vitro assay for hemolysis, horse blood
Method: (§1) Hemolysis caused by the peptoids was measured using 18 to 20 mL of a horse or human blood collected in EDTA-coated tubes which has been centrifuged at 500×g for 5 min. The supernatant was discarded and the pellet containing the cells were resuspended in PBS to a final volume of 20 mL. This step was repeated five times. After the final wash, the pellet was resuspended in PBS at the ratio of 1:10 (1 mL red blood cell: 9 mL PBS) to yield a final red blood cell (RBC) concentration of approximately 5 × 10^8 cells mL^−1. The concentration of RBCs was confirmed using a hemocytometer. The peptoids (stock concentration 2 mM) were diluted sequentially (two-fold dilutions) in PBS to final concentrations of […]. All the dilutions were subsequently mixed with the RBC suspension at the ratio of 1:1. MilliQ water was used as a positive control and PBS was used as a negative control in this assay. All samples were incubated at 37 °C for 3 h. Following incubation, the tubes were centrifuged at 500 x g for five mins, the supernatants were collected, transferred to wells in a 96 well plate and their optical density was measured at 540 nm. The percentage of hemolysis was calculated by dividing the absorbance of the test sample by the absorbance of the positive control, and multiplying by 100. Data are presented as the hemolysis caused by each dilution of peptoid, and as the concentration of peptoid that caused 10 % or 50 % lysis of red blood cells.
(§2) The geometric mean is the nth root of the multiplied numbers, where n is the total number of data values. A similar formula was used to calculate the selectivity ratio, but by using the concentration of peptoid that caused 10 % hemolysis.

human erythrocytes = assay: In vitro assay for hemolysis, human blood
Method: as §1, §2

## C[C@@H](c1ccccc1)N(CC(N)=O)C(=O)CN(C(=O)CN(CCCCN)C(=O)CN(C(=O)CN(C(=O)CN(CCCCN)C(=O)CN(C(=O)CN(C(=O)CN(CCCCN)C(=O)CN(C(=O)CN(C(=O)CNCCCCN)[C@@H](C)c1ccccc1)[C@@H](C)c1ccccc1)[C@@H](C)c1ccccc1)[C@@H](C)c1ccccc1)[C@@H](C)c1ccccc1)[C@@H](C)c1ccccc1)[C@@H](C)c1ccccc1 [TM1] (H-[Nlys][Nspe][Nspe][Nlys][Nspe][Nspe][Nlys][Nspe][Nspe][Nlys][Nspe][Nspe]-NH2)
[1]; 5x10^6 CFU mL^−1, 24 h 37 °C, ≥90 % reduction in CFUs
  MIC: 7.8 µg/mL (≈ 4.29 µM)
[1]; 24 h 37 °C, ≥99.99 % reduction in CFUs
  MBC: 15 µg/mL (≈ 8.24 µM)
[2]; ≥90 % reduction in CFUs
  MIC: 15 µg/mL (≈ 8.24 µM)
[2]; ≥99.99 % reduction in CFUs
  MBC: 31 µg/mL (≈ 17 µM)
[3]; ≥90 % reduction in CFUs
  MIC: 15 µg/mL (≈ 8.24 µM)
[3]; ≥99.99 % reduction in CFUs
  MBC: 31 µg/mL (≈ 17 µM)
[4]; ≥90 % reduction in CFUs
  MIC: 15(8.6)/15(8.6) μg mL^−1
[4]; ≥99.99 % reduction in CFUs
  MBC: 15(8.6)/15(8.6) μg mL^−1
[5]
  MBC: 31(17)/31(17) μg mL^−1
[6]; ≥90 % reduction in CFUs
  MIC: 7.8 µg/mL (≈ 4.29 µM)
[6]; ≥99.99 % reduction in CFUs
  MBC: 15 µg/mL (≈ 8.24 µM)
[7]; ≥90 % reduction in CFUs
  MIC: 3.9(2.2)/3.9(2.2) μg mL^−1
[7]; ≥99.99 % reduction in CFUs
  MBC: 3.9(2.2)/3.9(2.2) μg mL^−1
[8]; ≥90 % reduction in CFUs
  MIC: 3.9 µg/mL (≈ 2.14 µM)
[8]; ≥99.99 % reduction in CFUs
  MBC: 7.8 µg/mL (≈ 4.29 µM)
[9]; ≥90 % reduction in CFUs
  MIC: 7.8(4.3)/7.8(4.3) μg mL^−1
[9]; ≥99.99 % reduction in CFUs
  MBC: 7.8(4.3)/7.8(4.3) μg mL^−1
[10]; ≥90 % reduction in CFUs
  MIC: 7.8 µg/mL (≈ 4.29 µM)
[10]; ≥99.99 % reduction in CFUs
  MBC: 15 µg/mL (≈ 8.24 µM)
[11]; ≥90 % reduction in CFUs
  MIC: 1.9(1.1)/1.9(1.1) μg mL^−1
[11]; ≥99.99 % reduction in CFUs
  MBC: 1.9(1.1)/1.9(1.1) μg mL^−1
[12]; ≥90 % reduction in CFUs
  MIC: 3.9 µg/mL (≈ 2.14 µM)
[12]; ≥99.99 % reduction in CFUs
  MBC: 7.8 µg/mL (≈ 4.29 µM)
[13]; ≥90 % reduction in CFUs
  MIC: 15(8.6)/15(8.6) μg mL^−1
[13]; ≥99.99 % reduction in CFUs
  MBC: 15(8.6)/15(8.6) μg mL^−1
[14]; ≥90 % reduction in CFUs
  MIC: 3.9 µg/mL (≈ 2.14 µM)
[14]; ≥99.99 % reduction in CFUs
  MBC: 7.8 µg/mL (≈ 4.29 µM)
[15]; ≥90 % reduction in CFUs
  MIC: 3.9 µg/mL (≈ 2.14 µM)
[15]; ≥99.99 % reduction in CFUs
  MBC: 7.8 µg/mL (≈ 4.29 µM)
[16]
  MBC (minimum fungicidal concentration): 3.9(2.2)/3.9(2.2) μg mL^−1
Horse erythrocytes; concentration causing 10 % lysis of horse red blood cells, PBS, 3 h 37 °C, OD 540 nm
  Horse HC10: 4 µM
Horse erythrocytes; concentration causing 50 % lysis of horse red blood cells, PBS, 3 h 37 °C, OD 540 nm
  Horse HC50: 45 µM
Horse erythrocytes; selectivity ratio
  SR horse blood (ratio HC10 to geometric mean MIC): 1
Horse erythrocytes; therapeutic index
  TI horse blood (ratio HC50 to geometric mean MIC): 11
Human erythrocytes; concentration causing 10 % lysis of human red blood cells, PBS, 3 h 37 °C, OD 540 nm
  Human HC10: 8 µM
Human erythrocytes; concentration causing 50 % lysis of human red blood cells, PBS, 3 h 37 °C, OD 540 nm
  Human HC50: 49 µM
Human erythrocytes; selectivity ratio
  SR human blood (ratio HC10 to geometric mean MIC): 2
Human erythrocytes; therapeutic index
  TI human blood (ratio HC50 to geometric mean MIC): 12
